Assay results taken from patent EP0067897A1, “A pharmaceutical composition for use in raised intracranial pressure” (Tanabe Seiyaku Co., Ltd., priority 1981, dated 1982).

Tests used:
Male SD-strain rats = test: Effect on intracranial pressure (cerebrospinal fluid pressure in the cisterna magna) in urethane-anesthetized rats after oral administration; type: in vivo; details: 8 mg/kg orally
Protocol: Male SD-strain rats weighing […] (each group consisiting of 5 rats) were fasted for about 20 hours, and anesthetized with urethane. 1-(4-acetamido-2-methoxyphenoxy)-3-[4-(3-fluorophenyl)piperazino]-2-propanol (free base) was administered orally to the rats at a dose of 8 mg/kg. Intracranial pressure (i.e., cerebrospinal fluid pressure in the cisterna magna) was continuously monitored via a cannula inserted in the cisterna magna. The cannula was connected to a transducer, and recordings were made on graph paper. The effect of said test compound on the intracranial pressure was estimated in terms of the increase or decrease in intracranial pressure, which was calculated in accordance with the following formula: [formula]

[1] = Acute toxicity after oral administration; details: mouse, in vivo; oral administration to male mice, estimated a week after administration
From the text: Unlike those of the hypertonic solutions of glycerol or mannitol, the therapeutic effect of the propanol derivative (I) of the present invention is not ascribable to the cerebral dehydrating effect. The propanol derivative (I) may be used for the treatment or prophylaxis of increased intracranial pressure during and after brain surgical operation. Moreover, the propanol derivative (I) may be used for improving impaired consciousness, nervous disturbance and subjective symptoms (e.g., headache, nausea, vomiting) which are attributed to the cerebral diseases such as those mentioned hereinbefore. Further, whereas it is known that cerebral edema induces an increase in intracranial pressure and increased intracranial pressure serves to cause a build-up of edema which in turn impairs cerebral circulation, the propanol derivative (I) can interrupt such vicious cycle of cerebral diseases because of its potent intracranial pressure-lowering effect and ameliorate the cerebral circulatory impairment. The toxicity of the propanol derivative (I) of the invention is low.

## COc1cc(NC(C)=O)ccc1OCC(O)CN1CCN(c2cccc(F)c2)CC1 (stereo not shown) [1-(4-acetamido-2-methoxyphenoxy)-3-[4-(3-fluorophenyl)piperazino]-2-propanol]
Male SD-strain rats; 20 minutes after administration, pre-dose pressure = 100 (70 ± 3.1 mm H2O), 5 rats
  Changes in intracranial pressure (%): 85.4%
Male SD-strain rats; 60 minutes after administration, pre-dose pressure = 100
  Changes in intracranial pressure (%): 83.5%
Male SD-strain rats; 120 minutes after administration, pre-dose pressure = 100
  Changes in intracranial pressure (%): 77.7%
Male SD-strain rats; 180 minutes after administration, pre-dose pressure = 100
  Changes in intracranial pressure (%): 76.5%
Male SD-strain rats; 240 minutes after administration, pre-dose pressure = 100
  Changes in intracranial pressure (%): 75.6%
Male SD-strain rats; 300 minutes after administration, pre-dose pressure = 100
  Changes in intracranial pressure (%): 77.9%
[1]
  LD50 at 168 h: ~1500 mg/kg
